Data set [1] in a line: Pharmacokinetics in wild type C57BL6 mice (brain and serum, UHPLC-MS/MS). Particulars: C57BL/6, mouse, ip, 10 mg/kg I.P.; for AUC: over 12 h; for half-life: read-out: T1/2 (elimination) (converted). In kind it is in vivo. The procedure: Wild type C57BL6 mice were injected with 10 mg/kg BK50118-C versus DMSO, and the brain and serum were isolated at 0, 1, 2, 4, 6, 8 and 12 h; extracted in water and examined by mass spectrometry. […] Elimination (T1/2) was 2.32 h for brain and 1.84 h in serum.
C57BL/6 mice received a single intraperitoneal dose (10 mg/kg) of BK50118-C. Brain and serum samples were collected at 1, 2, 3, 4, 8 and 12 h (n = 3 per time point). Animals injected with vehicle (DMSO) were used for background subtraction. Stock solution of the drug (1 mg/mL) and internal standards were prepared in methanol. Intermediate solutions used for the calibrators and control samples were serial-diluted in methanol/water (1:1). Preparation of the calibration curve standards and quality samples (QC) were performed by mixing the intermediate dilutions in blank samples (brain homogenates, serum). The internal standard working solution contained deuterium labeled BK50118-C-d7 at the concentration of 5 ng/mL diluted in acetonitrile (ACN)/ethyl acetate (4:1). Serum and brain samples were stored at −80 °C and then thawed to room temperature prior to preparation. The brains were homogenized in MilliQ water (1 mg brain: 10 µL water). Proteins were precipitated in both brain and serum samples by mixing 25 µL aqueous sample with 75 µL internal standard working solution. The mixture was centrifuged at 12,300× g for 5 min. Thereafter, 75 µL of each supernatant and 25 µL of MilliQ water were pipetted into a 96-well PCR plate (Fisher Scientific, Dawsonville, GA, USA).
The concentrations of BK50118-C in the brain tissue and serum samples were measured by ultrahigh performance liquid chromatography tandem mass spectrometry (UHPLC-MS/MS). Briefly, the UHPLC-MS/MS system included an Elute HTG binary gradient UHPLC pump, an Elute column oven and an EVOQ Elite triple quadrupole mass spectrometer (all from Bruker Daltonik GmbH, Bremen, Germany) equipped with an electrospray ionization (ESI) source operating in a positive mode. The samples were injected by use of a PAL auto sampler (CTC Analytics, Zwingen, Switzerland) equipped with a 10-µL sample loop; the samples were kept in a PAL stack cooler for 6 microtiter plates and operating at +6 °C. The system was controlled by a Compass 2.0/HyStar 4.0 software (Bruker); the compound screening and quantitation was performed by a TASQ 2.2 data acquisition and processing software (Bruker). The mass spectrometer was supplied by nitrogen and air generated by a Genius 3045 nitrogen/air generator (Peak Scientific Instruments, Inchinnan, Scotland, UK). The ESI parameters were as follows: probe gas flow 50, nebulizer gas flow 60, probe temperature +400 °C, cone gas flow 20, cone temperature +350 °C, CID gas Ar 1.5 mTorr. The mass spectra were scanned in the MRM mode to find the optimal collision energies for the test compounds and their respective precursor ions.
For chromatographic separation, an YMC-Ultra HT Hydrosphere C18 column (2.0 × 100 mm, 2 µm particle size) and an YMC-Hydrosphere 2.1 × 5 mm guard column (YMC Co. Ltd., Kyoto, Japan) were used. The mobile phase A was 10 mM ammonium formate, pH 4.3, in water; the mobile phase B was 10 mM ammonium formate, pH 4.3, in 10% water, 50% acetonitrile and 40% isopropyl alcohol. The mobile phase gradient was as follows (min—A/B%): 0 min—50/50, 0.5 min—50/50, 2.0 min—20/80, 3 min—20/80, 3.1 min—50/50, 4.5 min—50/50. The flow rate was 450 µL/min, and the column temperature was set at 50 °C. The sample injection volume was 10 µL.

The subject of a further data set is human alpha-synuclein. Briefly: Alpha-synuclein levels in TgA53T mice (WB, ELISA, DAB staining). In kind it is in vivo, mouse. Particulars: vs DMSO; for reduction of number of human alpha-synuclein positive neurons: 40 mg/Kg I.P. daily for 7 days. As to the method:
Male and female TgA53T mice (15 months old) were treated daily with intraperitoneal injection of DMSO versus 10 mg/kg or 40 mg/kg BK50118-C for 7 days. […] ELISA measurement of alpha-synuclein in the same extracts (Figure 4C) confirmed that human alpha-synuclein was reduced by about 30% (10 mg/kg) and 56% (40 mg/kg), respectively (Figure 4C).
BK50118-C is one of novel small molecule inhibitors of USP13 synthesized in our laboratory. For BK50118-C treatment, approximately 15 months old (±1 month) male and female TgA53T mice were treated with intraperitoneal injection of vehicle (DMSO) or BK50118-C at the daily dosage of 10 mg/Kg or 40 mg/Kg for 7 days. Animals were age and sex-matched in their respective treatment cohorts. All animals were sacrificed after treatment. All experiments were conducted in full compliance with the recommendations of Georgetown University Animal Care and Use Committee. These experiments were conducted under animal protocol No. 2016-1194 titled, Misfolded Protein Clearance in Neurodegeneration, which was approved by the Georgetown University IACUC. Protocol Information: IACUC Protocol Number: 2016-1194. Protocol Approval Date: 14 September 2020 Expiration Date: 14 September 2023.
To extract the soluble proteins from mouse midbrain lysates, tissues were isolated and homogenized in 1x STEN buffer (50 mM Tris (pH 7.6), 150 mM NaCl, 2 mM EDTA, 0.2% NP-40, 0.2% BSA, 20 mMPMSF and protease cocktail inhibitor), centrifuged at 10,000× g for 20 min at 4 °C, and the supernatant containing the soluble protein fraction was collected. Extracts were analyzed by Western blot (WB) on 4–12% SDS NuPAGE Bis-Tris gel (Invitrogen, NP0301BOX). Beta-actin (β-actin) was probed (1:3000) with monoclonal antibody (Emdmillipore, MAB1501R, Burlington, MA, USA). Human alpha-synuclein was probed (1:2000) with monoclonal antibody (Thermo Fisher, AHB0261, Rockford, IL, USA). USP13 was probed (1:1000) with polyclonal antibody (ThermoFisher, PA5-12014, Rockford, IL, USA). Ubiquitin was probed (1:5000) with polyclonal antibody (Thermo Fisher, PA3-16717, Rockford, IL, USA). WBs were quantified by densitometry using Quantity One 4.6.3 software (Bio Rad, Hercules, CA, USA) and Image J.
The ELISA for USP13 (MyBioSource, Cat # MBS9335287, San Diego, CA, USA), Human alpha-synuclein (Biolegend, Cat # 844101, San Diego, CA, USA) and specific p-Tau ser396 (Invitrogen, KHB7031, Waltham, MA, USA) were performed on cell or brain tissue extracts as described above according to manufacturers’ protocol.
DAB staining was performed for alpha-synuclein (Thermo Fisher, AHB0261, Rockford, IL, USA) on the 20 µm thick mouse brain sections, and stereological counting of alpha-synuclein+ neurons counterstained with Nissl was conducted.

Where “and” joins values, the source holds several entries; their conditions need not be identical. Equal values may be shown once. Read-outs that look alike come from different tables or passages of the source.

In the case of `Fc1ccc2nccc(OCc3ccccc3)c2c1` [BK50118-C, 4-benzyloxy-6-fluoroquinoline], the Kp in data set [1] (brain and serum, read-out: Ratio of Serum/Brain) amounted to 0.28. Moreover, in data set [1] (brain), the Cmax is 81.5 nM and 20.6 ng/mL; the Tmax came out at 1 h; the area under the curve (AUC) came out at 0.164 ± 0.0395 µM·h; the half-life is 2.32 h. In data set [1] (serum), the Cmax was 89.7 ng/mL and 355 nM; the Tmax was 1 h; the area under the curve (AUC) came out at 0.599 ± 0.143 µM·h; the half-life is 1.84 h. For the same compound, in the data set with human alpha-synuclein (10 mg/kg I.P. daily for 7 days), the “reduction of human alpha-synuclein in midbrain extracts (ELISA)” value is “about 30%”. Further, in the data set with human alpha-synuclein (10 mg/kg or 40 mg/kg I.P. daily for 7 days), the “human alpha-synuclein in midbrain lysates (WB)” value is recorded as “significantly reduced”. For the same compound, in the data set with human alpha-synuclein (40 mg/kg I.P. daily for 7 days), the “reduction of human alpha-synuclein in midbrain extracts (ELISA)” value is on record as about 56%. In addition, the “reduction of number of human alpha-synuclein positive neurons” value with human alpha-synuclein (cortex) is given as 42%. Further, the “reduction of number of human alpha-synuclein positive neurons” value with human alpha-synuclein (striatum) is given as 40%.

Values taken from article PMC8467576, “Novel Ubiquitin Specific Protease-13 Inhibitors Alleviate Neurodegenerative Pathology” (Metabolites, 2021).
